According to patent US4707487A, “(4-imidazolyl)piperidines, the preparation thereof and their application in therapy” (Institut National de la Sante et de la Recherche Medicale …, priority 1985, dated 1987):
Each block holds one compound with its values, some of them ahead of it.

How the values were obtained:
[1] = system: rate of renewal of histamine in the synaptosomal fraction (P2) of rat cerebral cortex; assay: Effects of H3 antagonists on the rate of renewal of cerebral histamine (depletion after synthesis blocking with α-FMH); type: in vivo, rat (male); design: Depletion by α-FMH: unit not given beside the values
Description: III. EFFECTS OF H3 A[…] THE RATE OF RENEWAL OF CEREBRAL HISTAMINE
Male rats weighing from 80 to 100 g simultaneously receive intraperitoneally α-fluoromethyl histidine and the compound to be tested, each at a dose of 20 mg/kg. One hour later, the animals are sacrificed and the cerebral cortex rapidly removed and homogenized in 10 volumes of 0.32 M sucrose. The homogenate thereby obtained is subjected to two successive centrifugations, the first at 10^4 g.min and second at 2×10^5 g.min to sediment the fraction enriched in synaptosomes (Whittaker, Michaelson and Kirkland, Biochem. J., 1967, 90, 293-305). After resuspension of this fraction in 10 volumes of 20 mM phosphate (K2 /K) buffer, PH 7.8, and treatment with ultrasound, an aliquot portion is frozen for subsequent assay of histidine decarboxylase activity (Baudry, Martres and Schwartz, J. Neurochem., 21, 1301-1309, 1973), and another portion is heated for 10 minutes at 95° C. and then centrifuged at 10^4 g.min. The endogenous histamine is determined in the supernatant by a radioenzymatic assay, which enables the histamine to be converted to tritiated N^w methylhistamine by means of an enzyme purified from rat kidney, histamine N-methyltransferase, and a tritiated methyl radical donor, S-adenosylmethionine. The N^w -methylhistamine thereby formed is selectively extracted in an alkaline medium into chloroform, before measurement of the tritiated product by liquid scintillation (Taylor and Snyder, J. Pharmacol. Exp. Ther., 137, 619-633, 1971).
In the controls, these rates correspond to 15 ng/g/h, compared with approximately 30 ng/g/h after treatment with an H3 -receptor antagonist (Table 3).

[2] = system: rate of renewal of histamine in the synaptosomal fraction (P2) of rat cerebral cortex; assay: as above; type: in vivo, rat (male); design: Depletion by α-FMH: unit not given beside the values; remark: listed apart in the source
[3] = Acute toxicity: mortality in mice after a single administration of increasing doses; details: mouse, in vivo, after one hour
Description: The determination of mortality in mice is observed folowing a single intravenous administration of increasing doses of compounds to be tested.
The L.D.50 for all the compounds studied is […] 100 mg/kg […]. For example, that for the derivative No. 1 is 100 mg/kg after one hour.

[4] = biological target: T1, H3 self-receptors of rat brain (Rattus norvegicus, UniProt Q9QYN8); assay: cell-based
Description: (§1) The method described by Arrang et al., (Nature 1983, 302: 838-837) is used on sections (0.3 mm thick) of cerebral cortex of male Wistar rats (180-200 g) (IFFA-CREDO, France).

[5] = biological target: T1, H3 self-receptors of rat brain; assay: Antagonism of histamine stimulation of the H3 receptors controlling the release of (3H)histamine induced by depolarization of sections of rat brain
Description: as §1

[6] = α-FMH 20 mg/kg + test compound 20 mg/kg
[7] = α-FMH 20 mg/kg + test compound 20 mg/kg, * p < 0.01 with respect to α-FMH alone
[8] = α-FMH 20 mg/kg + test compound 20 mg/kg, where marked *** p < 0.05 with respect to α-FMH
[9] = α-FMH 20 mg/kg + test compound 2 mg/kg
[10] = read-out: Apparent dissociation constant (Ki) as antagonist of histamine on the H3 self-receptors of rat brain
[11] = α-FMH alone 20 mg/kg, i.p., 1 h, rat cerebral cortex

T1 sequence (Q9QYN8 whole entry): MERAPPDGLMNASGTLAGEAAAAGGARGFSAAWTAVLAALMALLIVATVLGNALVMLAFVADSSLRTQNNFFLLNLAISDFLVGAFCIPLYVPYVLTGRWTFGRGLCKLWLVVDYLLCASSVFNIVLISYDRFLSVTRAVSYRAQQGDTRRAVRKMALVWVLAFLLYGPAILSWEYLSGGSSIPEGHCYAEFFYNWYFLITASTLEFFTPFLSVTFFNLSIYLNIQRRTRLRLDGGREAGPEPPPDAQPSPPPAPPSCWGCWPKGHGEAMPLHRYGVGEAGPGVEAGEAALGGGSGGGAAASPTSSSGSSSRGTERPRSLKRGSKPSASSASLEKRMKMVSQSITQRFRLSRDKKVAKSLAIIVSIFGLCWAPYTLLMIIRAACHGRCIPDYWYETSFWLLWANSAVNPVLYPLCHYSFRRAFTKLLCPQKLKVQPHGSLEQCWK

SMILES: S=C(NC1CCCCC1)N1CCC(c2c[nH]cn2)CC1 [Example 1]
Depletion by α-FMH, change (in brackets) [1, 6]: +74%
Histamine (level in the synaptosomal fraction P2) [1, 7]: 26.4 ± 1.4
Depletion by α-FMH [1, 8]: 25.2 ± 3.3
histamine level in the synaptosomal fraction ([2]; administered alone at a dose of 20 mg/kg): significant fall in the histamine level in the synaptosomal fraction
Depletion by α-FMH ([2]; test compound alone 20 mg/kg, no α-FMH): 12.3 ± 3.7
Histamine (level in the synaptosomal fraction P2) ([2]; test compound alone 20 mg/kg, no α-FMH, ** p < 0.03 with the untreated animals): 39.3 ± 2.1
Depletion by α-FMH [2, 9]: 28.4 ± 4.0
Depletion by α-FMH, change (in brackets) [2, 9]: +96%
Histamine (level in the synaptosomal fraction P2) ([2]; α-FMH 20 mg/kg + test compound 2 mg/kg, * p < 0.01 with respect to α-FMH alone): 23.2 ± 2.7
LD50 at 1 h [3]: 100 mg/kg
Ki [4]: 5 nM

SMILES: O=C(NC1CCCCC1)N1CCC(c2cn(C(=O)NC3CCCCC3)cn2)CC1 [Example 2]
Ki [5]: 26 nM

SMILES: O=C(NC1CCCCC1)N1CCC(c2c[nH]cn2)CC1 [Example 3]
Depletion by α-FMH, change (in brackets) [1, 6]: +84%
Histamine (level in the synaptosomal fraction P2) [1, 7]: 24.9 ± 1.2
Depletion by α-FMH [1, 8]: 26.7 ± 3.2
Ki [5]: 41 nM

SMILES: O=C(c1ccc(N2CCC(c3c[nH]cn3)CC2)cc1)C1CC1 [Example 4]
Ki [5]: 37 nM

Ki [4]: 30 nM
SMILES: S=C(NC12CC3CC(CC(C3)C1)C2)N1CCC(c2c[nH]cn2)CC1 [Example 7]

SMILES: O=C(Nc1ccccc1)N1CCC(c2c[nH]cn2)CC1 [Example 9]
Ki [4]: 170 nM

Ki [4]: 23 nM
SMILES: O=C(Nc1cccc(F)c1)N1CCC(c2c[nH]cn2)CC1 [Example 10]

Ki [4]: 52 nM
SMILES: Cc1cccc(NC(=O)N2CCC(c3c[nH]cn3)CC2)c1 [Example 11]

Ki [4]: 84 nM
SMILES: Cc1cccc(NC(=O)N2CCC(c3cn(C(=O)Nc4cccc(C)c4)cn3)CC2)c1 [Example 16]

Ki [4]: 22 nM
SMILES: CC(NC(=O)N1CCC(c2cn(C(=O)NC(C)c3ccccc3)cn2)CC1)c1ccccc1 (stereo not shown) [Example 20]

Ki [4]: 500 nM
SMILES: Cc1[nH]cnc1C1CCN(CCCn2c(=O)[nH]c3ccccc32)CC1 [Example 39]

SMILES: c1ccc(OCCN2CCC(c3c[nH]cn3)CC2)cc1 [Example 40]
Ki [5]: 67 nM

Ki [4]: 10 nM
SMILES: CC(NC(=O)N1CCC(c2c[nH]cn2)CC1)c1ccccc1 (stereo not shown) [Example 56]

SMILES: CC(NC(=N)N1CCC(c2c[nH]cn2)CC1)C1CC1 (stereo not shown) [Example 57]
Ki [5, 10]: 12 nM

SMILES: S=C(NC1CCCCC1)N1CCCC(c2c[nH]cn2)C1 (stereo not shown) [Example 58]
Ki [5, 10]: 40 nM

SMILES: NCCc1c[nH]cn1 [histamine, reference compound]
inhibition at 1 µM ([5]; read-out: inhibition of (3H)histamine release by exogenous histamine): ~60%

SMILES: N[C@@](CF)(Cc1c[nH]cn1)C(=O)O [α-FMH, α-fluoromethylhistidine, reference compound]
Depletion by α-FMH [1, 11]: 14.5 ± 4.0
Histamine (level in the synaptosomal fraction P2) [1, 11]: 37.1 ± 2.7
